We go through 18 compounds from patent US6689803B2, “Compositions and methods for treating surgical adhesions” (Angiotech Pharmaceuticals, Inc., priority 1996, dated 2004).

The pIC50 is the negative decadic logarithm of the IC50, by convention in mol/L.

Data set [1] has as its system chick chorioallantoic membrane (CAM) vasculature.
Data set [2] deals with neutrophils. Briefly: Superoxide anion generation by neutrophils. Format: cell-based, human. The conditions noted are these: 17 μM; CPPD crystals. As to the method: (§1) All experiments that studied neutrophil responses to crystals or zymosan in the presence of paclitaxel were performed using plasma opsonized CPPD or zymosan. Opsonization of crystals or zymosan was done with 50% heparinized plasma at a concentration of 75 mg of CPPD or 12 mg of zymosan per ml of 50% plasma Crystals or zymosan were incubated with plasma for 30 minutes at 37° C. and then washed in excess HBSS.
(§2) Neutrophil viability and purity was always greater than 90%.
Superoxide anion concentrations were measured using the superoxide dismutase inhibitable reduction of cytochrome C assay. Briefly, 25 mg of crystals or 0.5 mg of zymosan was placed in a 1.5 ml capped Eppendorf tube and warmed to 37° C. 0.5 ml of cells at 37° C. were added together with ferricytochrome C (final concentration 1.2 mg/ml) and the cells were activated by shaking the capped tubes. At appropriate times tubes were centrifuged at 10,000 g for 10 seconds and the supernatant collected for assay be measuring the absorbance of 550 nm. Control tubes were set up under the same conditions with the inclusion of superoxide dismutase at 600 units per ml.

Data set [3] has as its system neutrophils. Briefly: Neutrophil degranulation assay (myeloperoxidase, lysozyme release). Format: cell-based, human. The conditions noted are these: 17 μM; CPPD crystals. Here is the method:
as §2
One and a half milliliter Eppendorf tubes containing either 25 mg of CPPD or 1 mg of zymosan were preheated to 37° C. 0.5 ml of cells at 37° C. were added followed by vigorous shaking to initiate the reactions. At appropriate times, tubes were centrifuged at 10,000 g for 10 seconds and 0.4 ml of supernatant was stored at −20° C. for later assay.
Lysozyme was measured by the decrease in absorbance at 450 nm of a Micrococcus lysodeikticus suspension. Briefly, Micrococcus lysodeikticus was suspended at 0.1 mg/ml in 65 mM potassium phosphate buffer, pH 6.2 and the absorbance at 450 nm was adjusted to 0.7 units by dilution. The crystal (or zymosan) and cell supernatant (100 μl) was added to 2.5 ml of the Micrococcus suspension and the decrease in absorbance was monitored. Lysozyme standards (chicken egg white) in the 0 to 2000 units/ml range were prepared and a calibration graph of lysozyme concentration against the rate of decrease in the absorbance at 450 nm was obtained.
Myeloperoxidase (MPO) activity was measured by the increase in absorbance at 450 nm that accompanies the oxidation of dianisidine. 7.8 mg of dianisidine was dissolved in 100 ml of 0.1 M citrate buffer, pH 5.5 at […] by sonication. To a 1 ml cuvette, 0.89 ml of the dianisidine solution was added, followed by 50 μl of 1% Triton x 100, 10 μl of a 0.05% hydrogen peroxide in water solution and 50 μl of crystal-cell supernatant. MPO activity was determined from the change in absorbance (450 nm) per minute, Delta Å 450, using the following equation: […]

A further data set concerns collagenase (MMP-1) mRNA. Briefly: IL-1 induced collagenase mRNA expression in chondrocytes (Northern blot). Format: cell-based, calf. The conditions noted are these: pre-incubation 6 hours, IL-1 20 ng/ml 18 hours. Here is the method:
Total RNA was isolated, and the MMP-1 mRNA levels were determined by Northern blot analysis. The blots were subsequently stripped and reprobed with ^32P-radiolabeled rat GAPDH cDNA, which was used as a housekeeping gene. The results shown are representative of four independent experiments. Quantitation of collagenase-1 and stromelysin-expression mRNA levels. The MMP-1 and MMP-3 expression levels were normalized with GAPDH.
Primary chondrocyte cultures were freshly isolated from calf cartilage. The cells were plated at 2.5×10^6 per ml in 100×20 mm culture dishes and incubated in Ham's F12 medium containing 5% FBS overnight at 37° C. […] IL-1 (20 ng/ml) was then added to each plate and the plates incubated for an additional 18 hours. Total RNA was isolated by the acidified guanidine isothiocyanate method and subjected to electrophoresis on a denatured gel. Denatured RNA samples (15 μg) were analyzed by gel electrophoresis in a 1% denatured gel, transferred to a nylon membrane and hydridized with the ^32P-labeled collagenase cDNA probe. ^32P-labeled glyceraldehyde phosphate […] (GAPDH) cDNA as an internal standard to ensure roughly equal loading. The exposed films were scanned and quantitatively analyzed with ImageQuant.

For a further data set, the system named is synoviocytes. Briefly: Proliferation assay (MTT). Format: cell-based. The note with it: 24-hour exposure. As to the method:
On day one, 5-10×10^4 synoviocytes were plated per well (96-well plate). Column #1 was kept free of cells (blank). On day 2, the plate was flicked to discard the medium and 200 μl of medium containing various concentrations of drug was added. […] There was no drug added to columns #1 and #2 (blank and untreated control, respectively). The medium containing the drug was discarded and 200 μl of fresh complete medium was added. The cells were then left to grow for an additional 3 to 4 days. On day five, 20 μl of dimethylthiazol diphenyltetrazolium bromide salt (MTT) (5 mg/ml PBS) was added and allowed to incubate for 4 hours at 37° C. The medium was decanted and 200 μl of DMSO was added.
The data were expressed as the % of survival which was obtained by dividing the number of cells remaining after treatment by the number of cells in the untreated control column #2 (the number of cells was obtained from a standard done prior to the assay).

Data set [4] concerns neutrophils. In words: Neutrophil chemiluminescence assay (opsonized CPPD crystals or zymosan). It is filed as cell-based, human. Here is the method:
as §1, §2
A stock solution of LY290181 at 100 μM in HBSS was freshly prepared.
All chemiluminescence studies were performed at a cell concentration of 5,000,000 cells/ml in HBSS with CPPD (50 mg/ml). In all experiments 0.5 ml of cells was added to 25 mg of CPPD or 0.5 mg of zymosan in 1.5 ml capped Eppendorf tubes. 10 μl of luminol dissolved in 25% DMSO in HBSS was added to a final concentration of 1 μM and the samples were mixed to initiate neutrophil activation by the crystals or zymosan. Chemiluminescence was monitored using an LKB Luminometer (Model 1250) at 37° C. for 20 minutes with shaking immediately prior to measurements to resuspend the crystals or zymosan. Control tubes contained cells, drug and luminol (crystals absent).

Another data set concerns aggrecan mRNA. In words: Expression of proteoglycan (aggrecan) in chondrocytes. It is filed as cell-based, calf. The conditions noted are these: all concentrations evaluated (10^−7 M to 10^−4 M). Here is the method:
Primary chondrocyte cultures were freshly isolated from calf cartilage. The cells were plated at 2.5×10^6 per ml in 100×20 mm culture dishes and incubated in Ham's F12 medium containing 5% FBS overnight at 37° C. The cells were starved in serum-free medium overnight and then treated with anti-microtubule agents at various concentrations (10^−7 M, 10^−6 M, 10^−5 M and 10^−4 M) for 6 hours. […] Total RNA was isolated by the acidified guanidine isothiocyanate method and subjected to electrophoresis on a denatured gel. […] The exposed films were scanned and quantitatively analyzed with ImageQuant.

Data set [5] relates to collagen-induced arthritis. Briefly: CIA rat model, intraperitoneal micellar paclitaxel. It is filed as in vivo. Here is the method:
As a comparison with standard therapy, a third group received methotrexate at 0.3 mg/kg i.p. (human equivalent dose) on days 0, 5 and 10 post-arthritis onset. […] The control (group 5) and experimental animals were evaluated for disease severity both clinically and radiographically by individuals blinded to treatment groups.
The severity of inflammation for each limb was evaluated daily and scored based on standardized levels of swelling and periarticular erythema (0 being normal and 4 severe). Animals were evaluated radiographically on day 28 of the experiment. […] Histological assessment of the joints was completed at the conclusion of the experiment.

pIC50: −log10 of the molar value. Like-named read-outs stand apart in the source and are kept apart here. Some results are limits rather than exact numbers.

As for `CCc1occc(=O)c1[O-].CCc1occc(=O)c1[O-].[O-2].[V+4]` [BEOV], in data set [1] (PCL paste (3 mg), 10%), the Inhibition/n entry is recorded as “too toxic”.
On to `Cc1occc(=O)c1[O-].Cc1occc(=O)c1[O-].[O]=[V+2]` [BMOV], for which the Inhibition/n result is “too toxic” in data set [1] (PCL paste (3 mg), 10%); “too toxic” in data set [1] (PCL paste (3 mg), 25%); “too toxic” in data set [1] (PCL paste (3 mg), 35%).
On to `N#CC1=C(N)Oc2c(ccc3ccccc23)C1c1cccnc1` (stereo not shown) [LY290181, 2-amino-4-(3-pyridyl)-4H-naphtho(1,2-b)pyran-3-cardonitrile], for which the Inhibition/n result in data set [1] (PCL paste (3 mg), 1%) is recorded as “did not induce an anti-angiogenesis response”; in data set [1] (PCL paste (3 mg), 5%), “⅓”. Moreover, in the data set on neutrophils [2], the superoxide anion production entry is “decrease in the amount of superoxide generated”. Besides, the lysozyme release entry in the data set with neutrophils [3] is “decreased both lysozyme and myeloperoxidase release”. For the same compound, the myeloperoxidase release entry in the data set on neutrophils [3] was “decreased both lysozyme and myeloperoxidase release”. In the data set with collagenase (MMP-1) mRNA, the “prevented IL-1-induced collagenase expression at concentrations as low as” value was 100 nM. Also, in the data set on synoviocytes, the pIC50 was greater than 8.30. In the data set with neutrophils [4] (0.5 to 50 μM), the “inhibition of plasma opsonized zymosan-induced neutrophil chemiluminescence” value is “strong inhibition”. Further, the expression of aggrecan result with aggrecan mRNA is given as “did not affect the expression of aggrecan”.
On to `COC(=O)/C=C/c1cc(O)ccc1O` [MDHC], for which the Inhibition/n in data set [1] (PCL paste (3 mg), 20%) is 0/8.
Regarding `[2H]O[2H]` [deuterium oxide], the “prevented IL-1-induced collagenase expression at concentrations as low as” value in the data set with collagenase (MMP-1) mRNA was determined as 100 nM. In the data set with aggrecan mRNA, the expression of aggrecan entry is reported as “did not affect the expression of aggrecan”.
Consider `C/C(=C\c1csc(C)n1)[C@@H]1C[C@@H]2O[C@]2(C)CCC[C@H](C)[C@H](O)[C@@H](C)C(=O)C(C)(C)[C@@H](O)CC(=O)O1` [epothilone B], for which the “prevented IL-1-induced collagenase expression at concentrations as low as” value in the data set with collagenase (MMP-1) mRNA amounted to 100 nM. In the data set on synoviocytes, the pIC50 was roughly 7.35. In the data set on aggrecan mRNA, the expression of aggrecan result is “did not affect the expression of aggrecan”.
Turning to `CCOC(=O)CN` [glycine ethyl ester], the “prevented IL-1-induced collagenase expression at concentrations as low as” value with collagenase (MMP-1) mRNA is 100 nM. Further, the “inhibition of plasma opsonized zymosan-induced neutrophil chemiluminescence” value in the data set on neutrophils [4] (0.5 to 20 mM) was “strong inhibition”. Moreover, the expression of aggrecan entry in the data set on aggrecan mRNA is listed as “did not affect the expression of aggrecan”.
In the case of `CC(O)CC(C)(C)O` (stereo not shown) [hexylene glycol, 2-methyl-2,4-pentanediol], the “prevented IL-1-induced collagenase expression at concentrations as low as” value in the data set on collagenase (MMP-1) mRNA was found to be 100 nM. For the same compound, the expression of aggrecan entry with aggrecan mRNA is “did not affect the expression of aggrecan”.
As to `O=C(O)c1cc(NCc2cc(O)ccc2O)ccc1O` [lavendustine-c], the Inhibition/n in data set [1] (PCL paste (3 mg), 10%) is 0/14; in data set [1] (PCL paste (3 mg), 20%), 0/10.
In the case of `CN(Cc1cnc2nc(N)nc(N)c2n1)c1ccc(C(=O)N[C@@H](CCC(=O)O)C(=O)O)cc1` [methotrexate], in data set [5] (0.3 mg/kg), the “Percentage of Animals with Erosions” value was 76% and the “Radiographic Score” value worked out at 4.25 ± 0.64. Moreover, in data set [5] (0.3 mg/kg i.p.), the “Antibody to Collagenase II” value is recorded as 0.182 ± 0.0034, the “Arthritic Index on Day 10” value is recorded as 5.4 ± 0.6 and the “Maximum Mean Arthritis Score” value is 5.7 ± 0.6.
In the case of `[O]=[V]([O-])([O-])[O-]` [vanadate], in data set [1] (in vivo), the Inhibition/n was 0/5.
The same measure, in the same setting: the value for `O=S(=O)([O-])[O-].[O]=[V+2]` [vanadyl sulphate] was 0/3.
As to `CC[C@]1(O)C[C@H]2CN(CCc3c([nH]c4ccccc34)[C@@](C(=O)OC)(c3cc4c(cc3OC)N(C=O)[C@H]3[C@@](O)(C(=O)OC)[C@H](OC(C)=O)[C@]5(CC)C=CCN6CC[C@]43[C@@H]65)C2)C1` [vincristine], the Inhibition/n result in data set [1] (PCL paste (3 mg), 1%) is reported as “too toxic”; in data set [1] (PCL paste (3 mg), 2%), “too toxic”; in data set [1] (methylcellulose (10 ul), 1 ug), “too toxic”; in data set [1] (methylcellulose (10 ul), 9 ug) it was “too toxic”. In data set [1] (PCL paste, concentrations exceeding 2%), the “toxicity to the embryo” value is given as “unexpected embryonic death occurred”.
For aluminum fluoride, in the data set with collagenase (MMP-1) mRNA, the “prevented IL-1-induced collagenase expression at concentrations as low as” value was 100 nM. The compound further gave a pIC50 in the data set with synoviocytes of roughly 4.49. Also, the “inhibition of plasma opsonized zymosan-induced neutrophil chemiluminescence” value with neutrophils [4] (5 to 100 mM) is “strong inhibition”. Also, in the data set with aggrecan mRNA, the expression of aggrecan result is recorded as “did not affect the expression of aggrecan”.
As for baccatin, the Inhibition/n in data set [1] (methylcellulose (5 ul), 5 ug) is 4/7; in data set [1] (paste (2 mg), 2 ug), 2/3.
For the compound “ethylene glycol bis-(succinimidylsuccinate)”, the “prevented IL-1-induced collagenase expression at concentrations as low as” value in the data set on collagenase (MMP-1) mRNA amounted to 100 nM. The expression of aggrecan entry with aggrecan mRNA is recorded as “did not affect the expression of aggrecan”.
As to herbimysin, the Inhibition/n is 3/4 in data set [1] (PCL paste (3 mg), 2%) and 1/1 in data set [1] (in vivo).
For protamine sulphate, the Inhibition/n in data set [1] (methylcellulose (10 ul), 100 ul ^) was 1/10.
